Key:
Assay type in all cases: cell-based
[1] = test system: MC3T3-E1 osteoblast cells; test: Osteoblast mineralization assay (Alizarin Red staining); settings: 5 μM compared with […]
Procedure: MC3T3-E1 cells were seeded at 1×10^5 cells per well in 24-well plates. […] […] Cells were washed twice with PBS and fixed with 10% formalin for 1 hour. Fixed cell was washed twice with distilled water and stained with 2% Alizarin Red S solution (pH 4.1) in the dark for 1 hour. Stain solution was removed and washed 4 times with distilled water.

MCF7 cells = test: BrdU incorporation proliferation assay
Excerpt: The effect of F compounds on estrogen dependent cancer cells was investigated (FIG. 8). […] The fold increase of MCF7 proliferation was similar to that induced by estradiol treatment.

MDA-MB-231 cells = test: BrdU incorporation proliferation assay; settings: 5 μM
MC3T3-E1 osteoblasts = test: Alkaline phosphatase (ALP) activity assay in MC3T3-E1 osteoblasts; settings: for effect of antagonist on F4-induced ALP activity: 5 μM F4
Procedure: MC3T3-E1 (passage 4-10) was maintained in Minimal Essential Media (MEM) supplemented with 10% FBS, 1 mM Sodium Pyruvate and 1% 100 ug/ml penicillin-streptomycin (100 U/ml). All reagents are from GIBCO Life Technologies.
MC3T3-E1 cells were seeded at 1×10^5 cells per well in 24-well plate. […] After treatment, cells were washed twice with PBS and lysed with buffer contains 50 mM Tris pH7.4 and 0.1% Triton X-100. After 3 freeze-thaw cycles, 40 ul of cell lysate was mixed with 50 ul of 2× Assay buffer (2-Amino-2methyl-1-propanol, pH 10.4 with 4 mM MgCl2) and 10 ul of 0.1M 4-Nitrophenyl phosphate. Incubated in 37° C. and recorded at OD410.

[2] = test system: estrogen responsive gene elements (ERE); test: pERE-Luc reporter gene assay in MC3T3-E1; settings: ICI182780 10 nM and 1 μM
Procedure: MC3T3-E1 were seeded at 9.0×10^4 per well in 24-well plates. Twenty-four hours after cell seeding, cells were transiently transfected with 500 ng pERE-Luc (contains three repeats of estrogen-response element) by lipofectamine 2000 (Life Technologies) according to manufacturers' instruction (lipofectamine:DNA=3:1).

p38 = test: Western blot of phosphorylated p38 and total p38; settings: with 5 μM F4, 15 and 30 min, MC3T3-E1 osteoblasts
Procedure: MC3T3-E1 were lysed with 20 mM Tris pH8.0, 137 mM NaCl, 2 mM EDTA, 1% Triton X-100 and 10% Glycerol with protease inhibitor cocktail (Roche, complete). Protein concentration was determined by Bradford Protein Assay (Bio-Rad) and equal amount of proteins (30 μg) was resolved by SDS-PAGE and transferred onto PVDF membrane. The membrane was blocked with 3% BSA in Tris-buffered saline containing 0.1% Tween 20 and incubated with primary antibody (1:1000) overnight at 4° C. then incubated with HRP-linked secondary antibody for 1 h. Chemiluminescence signals were detected using enhanced chemiluminescence reagents (GE Healthcare) on X-Ray films (Fujifilm).
The levels of phosphorylated p38 and total p38 were determined by immunoblotting experiments.

C=Cc1cc(O)cc2ccc3c(C)c(O)ccc3c12 [F5, dehydroeffusol]
calcium deposition at higher vs lower concentration [1]: More calcium deposition | MCF7 cell proliferation induced by estradiol (MCF7 cells; 5 μM): significantly suppress | MCF7 cell proliferation (MCF7 cells; dose of 5 μM or higher): inhibited the proliferation | MCF7 cell proliferation (MCF7 cells; low dose of 0.3 μM): induced MCF7 cell proliferation | cell proliferation induced by 17beta-estradiol in MDA-MB-231 cells (ER negative) (MDA-MB-231 cells): had no effect

C[C@]12CC[C@@H]3c4ccc(O)cc4C[C@@H](CCCCCCCCC[S+]([O-])CCCC(F)(F)C(F)(F)F)[C@H]3[C@@H]1CC[C@@H]2O (some centres unmarked) [ICI182780, reference compound]
effect of antagonist on F4-induced ALP activity (MC3T3-E1 osteoblasts; day 4): no effect | effect of antagonist on F4-induced ALP activity (MC3T3-E1 osteoblasts; day 7): inhibited | effect of antagonist on F4-stimulated ERE promoter activity ([2]; 5 μM F4): could be inhibited | effect of antagonist on estradiol-stimulated ERE-driven promoter activity [2]: inhibited

C[S+]([O-])c1ccc(-c2nc(-c3ccncc3)c(-c3ccc(F)cc3)[nH]2)cc1 (centres unmarked) [SB203580, reference compound]
effect of MAP kinase inhibitor on F4-induced increases in ALP activity (MC3T3-E1 osteoblasts; with 5 μM F4, 2 days): significantly inhibited | levels of phosphorylated p38 in F4-treated cells on addition of inhibitor (p38): reduced the levels of phosphorylated p38
